Data as given in patent publication US8969383B2, “Picolinamide derivatives as TTX-S blockers” (RaQualia Pharma Inc., priority 2009, dated 2015).
pIC50: −log10 of the molar value.

Columns and labels:
[1] = target: T1, human Nav1.7 (Homo sapiens, UniProt Q15858); experiment: FRET assay, human Nav1.7 channels expressed in CHO cells; type: cell-based; conditions: CHO cells expressing human NaV1.7, veratridine-opened channels
T1 construct: expressed in transfected cells; host or cells: CHO
Protocol: (§1) The ability of the picolinamide derivatives of the formula (I) to inhibit the NaV1.3,Nav1.7 and Nav1.5 channels was measured by FRET assay and electrophysiology assay described below.
(§2) This screen is used to determine the effects of compounds on human Nav1.3, human Nav1.7, and human Nav1.5 channels, utilising the cell imaging technology by Hamamatsu Photonics's Functional Drug Screening System (FDSS). This experiment is based on FRET (Fluorescence Resonance Energy Transfer) and uses two fluorescent molecules. The first molecule, Oxonol (DiSBAC2(3)), is a highly fluorescent, negatively charged, hydrophobic ion that “senses” the trans-membrane electrical potential. In response to changes in membrane potential, it can rapidly redistribute between two binding sites on opposite sides of the plasma membrane. The voltage dependent redistribution is transduced into a ratiometric fluorescent readout via a second fluorescent molecule (Coumarin (CC2-DMPE)) that binds specifically to one face of the plasma membrane and functions as a FRET partner to the mobile voltage-sensing ion. To enable the assay to work, the channels have to be pharmacologically held in the open state. This is achieved by treating the cells with veratridine.
CHO cells expressing human NaV1.7 channels were grown in T225 flasks, in a 5% CO 2 humidified incubator to about 80% confluence. Media composition consisted of HAM/F12 with Glutamax 1.10% fetal calf serum (FCS), 100 units/ml Penicillin and 100 microgram/ml Hygromycin.
(§3) • Seed each cell lines (1.5×10^4 cells/well) into poly-D-lysine coated 384-well plates prior to experimentation. • Incubate at 37° C. in 5% CO2 for 24 hours. • Wash each well with buffer #1 (140 mM NaCl, 4.5 mM KCl, 10 mM D-Glucose, 2 mM CaCl2, 1 mM MgCl2, 10 mM HEPES, pH 7.4 adjusted with NaOH) twice using plate washer. • Add 1st loading solution containing 5 μM CC2-DMPE and 0.02% Pluronic F-127 in buffer #1. • Incubate the plate at room temperature in dark for 0.5 hours. • Wash each well with buffer #2 (160 mM Choline, 10 mM D-Glucose, 0.1 mM CaCl2, 1 mM MgCl2, 10 mM HEPES, pH 7.4 adjusted with KOH) twice using plate washer. • Add 2nd loading solution containing 15 μM DiSBAC2(3), 0.5 mM VABSC-1, 10 μM veratridine and 0.004% Pluronic F-127 in buffer #2. • Add compound solutions into the assay plate and leave the plate for 30 minutes under the dark at room temperature. • Measure by FDSS.
(§4) The data was analyzed and reported as normalized ratios of intensities measured in the 465 nm and 575 nm channels. The process of calculating these ratios was performed as follows:
(§5) “FI465B”=the mean of fluorescence intensity as baseline (before Na+ ligand addition) at 465 nm
(§6) “FI575B”=the mean of fluorescence intensity as baseline (before Na+ ligand addition) at 575 nm
(§7) “FI465Max”=maximum fluorescence intensity at 465 nm after Na+ stimulation
(§8) “FI575 Min”=minimum fluorescence intensity at 575 nm after Na+ stimulation
(§9) This analysis was performed using a computerized specific program designed for FDSS generated data. Fluorescence ratio values were plotted using XLfit to determine an IC50 value for each compound.

[2] = target: T2, human Nav1.3 (Homo sapiens, UniProt Q9NY46); experiment: FRET assay, human Nav1.3 channels expressed in HEK293 cells; type: cell-based; conditions: HEK293 cells expressing human NaV1.3, veratridine-opened channels
T2 construct: expressed in transfected cells; host or cells: HEK293
Protocol: as §1, §2
Each HEK293 cells expressing human NaV1.3 channels and HEK293 cells expressing human NaV1.5 channels were grown in T225 flasks, in a 5% CO2 humidified incubator to about 80% confluence. Media composition consisted of Dulbecco's Modified Eagle Medium (high glucose), 10% fetal calf serum (FCS), 100 units/ml Penicillin, 100 microgram/ml Streptomycin and 500 microgram/ml Geneticine.
as §3, §4, §5, §6, §7, §8, §9

T2 sequence (Q9NY46 whole entry): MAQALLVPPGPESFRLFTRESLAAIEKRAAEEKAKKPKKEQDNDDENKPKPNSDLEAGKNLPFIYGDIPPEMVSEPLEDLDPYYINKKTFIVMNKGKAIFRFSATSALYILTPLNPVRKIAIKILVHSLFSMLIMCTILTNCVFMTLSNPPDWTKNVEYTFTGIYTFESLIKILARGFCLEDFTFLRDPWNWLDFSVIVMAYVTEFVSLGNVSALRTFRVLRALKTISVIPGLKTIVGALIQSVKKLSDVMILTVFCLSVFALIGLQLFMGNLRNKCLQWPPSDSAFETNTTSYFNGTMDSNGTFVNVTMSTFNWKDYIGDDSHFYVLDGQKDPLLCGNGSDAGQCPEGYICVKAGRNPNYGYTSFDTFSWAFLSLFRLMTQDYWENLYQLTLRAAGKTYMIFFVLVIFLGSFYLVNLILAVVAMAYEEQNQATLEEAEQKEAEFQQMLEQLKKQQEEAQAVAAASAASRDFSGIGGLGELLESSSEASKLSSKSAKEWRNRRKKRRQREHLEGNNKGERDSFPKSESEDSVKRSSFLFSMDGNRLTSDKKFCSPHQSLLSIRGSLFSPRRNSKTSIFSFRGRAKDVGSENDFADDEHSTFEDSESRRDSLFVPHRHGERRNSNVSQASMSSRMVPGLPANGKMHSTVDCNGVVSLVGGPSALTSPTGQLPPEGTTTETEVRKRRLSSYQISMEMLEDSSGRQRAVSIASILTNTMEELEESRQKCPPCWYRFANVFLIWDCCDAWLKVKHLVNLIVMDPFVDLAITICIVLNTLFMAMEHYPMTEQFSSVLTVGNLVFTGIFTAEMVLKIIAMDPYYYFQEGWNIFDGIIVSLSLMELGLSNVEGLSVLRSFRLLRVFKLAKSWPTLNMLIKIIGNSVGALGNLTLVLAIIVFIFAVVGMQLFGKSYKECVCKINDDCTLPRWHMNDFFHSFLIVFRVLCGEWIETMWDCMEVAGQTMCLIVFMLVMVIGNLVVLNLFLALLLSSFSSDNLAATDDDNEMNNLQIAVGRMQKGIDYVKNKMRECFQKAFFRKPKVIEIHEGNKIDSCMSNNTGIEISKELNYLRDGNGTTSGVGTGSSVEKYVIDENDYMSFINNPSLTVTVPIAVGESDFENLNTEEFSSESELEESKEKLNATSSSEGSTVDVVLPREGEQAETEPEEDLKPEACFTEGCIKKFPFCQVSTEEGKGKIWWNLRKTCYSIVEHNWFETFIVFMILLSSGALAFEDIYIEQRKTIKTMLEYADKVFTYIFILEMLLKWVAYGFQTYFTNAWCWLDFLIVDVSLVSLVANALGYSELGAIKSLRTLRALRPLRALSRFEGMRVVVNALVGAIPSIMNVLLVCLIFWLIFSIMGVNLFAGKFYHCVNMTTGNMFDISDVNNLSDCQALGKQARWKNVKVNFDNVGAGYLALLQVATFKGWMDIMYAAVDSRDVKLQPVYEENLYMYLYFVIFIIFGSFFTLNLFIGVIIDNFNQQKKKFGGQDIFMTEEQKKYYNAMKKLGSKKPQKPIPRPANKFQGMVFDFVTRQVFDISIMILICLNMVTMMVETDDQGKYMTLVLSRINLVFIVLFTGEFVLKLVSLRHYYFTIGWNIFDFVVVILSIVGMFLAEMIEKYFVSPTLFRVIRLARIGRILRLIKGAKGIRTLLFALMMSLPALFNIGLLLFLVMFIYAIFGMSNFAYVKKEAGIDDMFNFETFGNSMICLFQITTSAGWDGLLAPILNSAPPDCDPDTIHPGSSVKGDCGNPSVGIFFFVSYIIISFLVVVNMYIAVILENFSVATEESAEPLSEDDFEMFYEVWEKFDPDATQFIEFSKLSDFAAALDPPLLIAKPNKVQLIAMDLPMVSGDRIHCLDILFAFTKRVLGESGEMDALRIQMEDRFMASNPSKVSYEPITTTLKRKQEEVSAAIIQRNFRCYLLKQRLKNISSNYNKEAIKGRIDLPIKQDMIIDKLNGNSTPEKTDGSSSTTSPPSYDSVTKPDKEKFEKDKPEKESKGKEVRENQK
T1 sequence (Q15858 whole entry): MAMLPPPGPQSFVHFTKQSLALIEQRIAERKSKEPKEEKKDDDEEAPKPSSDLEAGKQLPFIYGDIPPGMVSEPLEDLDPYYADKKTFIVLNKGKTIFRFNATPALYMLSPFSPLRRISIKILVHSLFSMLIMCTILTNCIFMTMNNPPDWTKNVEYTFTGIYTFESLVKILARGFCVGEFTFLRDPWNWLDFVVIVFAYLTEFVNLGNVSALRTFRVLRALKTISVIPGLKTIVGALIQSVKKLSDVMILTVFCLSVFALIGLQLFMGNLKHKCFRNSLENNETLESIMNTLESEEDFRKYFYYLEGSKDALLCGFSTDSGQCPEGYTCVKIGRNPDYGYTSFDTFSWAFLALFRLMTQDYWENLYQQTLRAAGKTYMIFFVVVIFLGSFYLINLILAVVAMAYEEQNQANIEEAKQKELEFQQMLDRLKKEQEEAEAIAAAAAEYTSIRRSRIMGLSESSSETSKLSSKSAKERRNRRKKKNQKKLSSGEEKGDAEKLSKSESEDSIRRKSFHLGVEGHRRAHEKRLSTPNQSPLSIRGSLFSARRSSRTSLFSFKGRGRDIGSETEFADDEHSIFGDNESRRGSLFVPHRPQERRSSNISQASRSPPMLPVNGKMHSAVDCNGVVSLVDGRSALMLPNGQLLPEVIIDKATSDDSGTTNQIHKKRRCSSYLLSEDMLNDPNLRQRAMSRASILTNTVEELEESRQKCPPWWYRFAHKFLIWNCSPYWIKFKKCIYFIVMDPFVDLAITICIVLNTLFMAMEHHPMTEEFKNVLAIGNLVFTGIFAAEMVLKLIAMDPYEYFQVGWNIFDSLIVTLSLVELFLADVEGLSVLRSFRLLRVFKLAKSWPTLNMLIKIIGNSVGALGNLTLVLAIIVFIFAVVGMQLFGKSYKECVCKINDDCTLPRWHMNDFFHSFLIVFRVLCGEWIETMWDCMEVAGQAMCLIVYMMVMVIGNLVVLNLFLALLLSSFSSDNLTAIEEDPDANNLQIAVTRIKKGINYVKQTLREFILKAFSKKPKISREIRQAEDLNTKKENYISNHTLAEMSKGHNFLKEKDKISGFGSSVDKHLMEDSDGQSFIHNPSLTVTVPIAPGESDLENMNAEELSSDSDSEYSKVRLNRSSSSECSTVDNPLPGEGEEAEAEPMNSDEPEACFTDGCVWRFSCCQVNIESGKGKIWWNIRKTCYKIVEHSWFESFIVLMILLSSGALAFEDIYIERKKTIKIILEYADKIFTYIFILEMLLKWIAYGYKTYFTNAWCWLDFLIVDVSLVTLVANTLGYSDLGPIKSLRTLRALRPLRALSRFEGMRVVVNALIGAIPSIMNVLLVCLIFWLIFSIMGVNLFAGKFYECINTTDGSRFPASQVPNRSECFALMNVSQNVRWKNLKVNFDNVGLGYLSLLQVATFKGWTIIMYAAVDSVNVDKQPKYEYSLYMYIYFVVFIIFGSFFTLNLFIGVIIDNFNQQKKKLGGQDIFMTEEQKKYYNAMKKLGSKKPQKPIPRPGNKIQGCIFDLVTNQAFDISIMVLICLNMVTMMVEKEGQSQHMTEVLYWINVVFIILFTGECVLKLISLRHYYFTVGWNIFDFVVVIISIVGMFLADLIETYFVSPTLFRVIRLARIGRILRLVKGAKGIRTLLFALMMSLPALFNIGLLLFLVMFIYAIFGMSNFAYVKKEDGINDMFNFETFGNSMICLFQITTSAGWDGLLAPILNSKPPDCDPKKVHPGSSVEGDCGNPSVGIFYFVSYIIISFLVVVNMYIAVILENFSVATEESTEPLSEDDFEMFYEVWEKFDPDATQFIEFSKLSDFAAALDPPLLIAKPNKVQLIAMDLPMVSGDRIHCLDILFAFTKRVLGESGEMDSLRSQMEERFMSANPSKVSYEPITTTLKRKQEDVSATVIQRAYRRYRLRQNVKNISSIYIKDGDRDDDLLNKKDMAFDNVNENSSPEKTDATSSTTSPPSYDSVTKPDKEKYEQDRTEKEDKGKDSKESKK

Row | SMILES | pIC50 [1] | pIC50 [2]
1 | CC(C)(C)c1cc(C(=O)N2CCC[C@@H]2COc2cccnc2C(N)=O)no1 [Example 17, (R)-3-((1-(5-tert-butylisoxazole-3-carbonyl)pyrrolidin-2-yl)methoxy)picolinamide] | ≥ 6.30 | ≥ 6.30
2 | O=C(NCCN1CCOCC1)c1ncccc1OC[C@H]1CCCN1C(=O)c1cccc(C(F)(F)F)c1 [Example 68, (R)-N-(2-morpholinoethyl)-3-((1-(3-(trifluoromethyl)benzoyl)pyrrolidin-2-yl)methoxy) picolinamide] | ≥ 6.30 | ≥ 6.30
3 | O=C(NCCO)c1ncccc1OC[C@H]1CCCN1C(=O)c1cccc(C(F)(F)F)c1 [Example 69, (R)-N-(2-hydroxyethyl)-3-((1-(3-(trifluoromethyl)benzoyl)pyrrolidin-2-yl)methoxy) picolinamide] | ≥ 6.30 | ≥ 6.30
4 | NC(=O)c1ncccc1OC[C@H]1CCCN1C(=O)c1ccc(OC(F)(F)F)cc1 [Example 25, (R)-3-((1-(4-(trifluoromethoxy)benzoyl)pyrrolidin-2-yl)methoxy) picolinamide] | ≥ 6.30 | ≥ 6.30
5 | O=C(NCc1ccccn1)c1ncccc1OC[C@H]1CCCN1C(=O)[C@H]1CC[C@H](C(F)(F)F)CC1 [Example 40, N-(pyridin-2-ylmethyl)-3-(((R)-1-(trans-4-(trifluoromethyl)cyclohexanecarbonyl)pyrrolidin-2-yl)methoxy)picolinamide] | ≥ 6.30 | ≥ 6.30
6 | O=C(Nc1ncns1)c1ncccc1OC[C@H]1CCCN1C(=O)[C@H]1CC[C@H](C(F)(F)F)CC1 [Example 47, N-(1,2,4-thiadiazol-5-yl)-3-(((R)-1-(trans-4-(trifluoromethyl)cyclohexanecarbonyl)pyrrolidin-2-yl)methoxy) picolinamide] | ≥ 6.30 | ≥ 6.30
7 | COCCNC(=O)c1ncccc1OC[C@H]1CCCN1C(=O)[C@H]1CC[C@H](C(F)(F)F)CC1 [Example 37, N-(2-methoxyethyl)-3-(((R)-1-(trans-4-(trifluoromethyl)cyclohexanecarbonyl)pyrrolidin-2-yl)methoxy)picolinamide] | ≥ 6.30 | ≥ 6.30
8 | O=C(Nc1ccon1)c1ncccc1OC[C@H]1CCCN1C(=O)CC1CCC(F)(F)CC1 [Example 66, (R)-3-((1-(2-(4,4-difluorocyclohexyl)acetyl)pyrrolidin-2-yl)methoxy)-N-(isoxazol-3-yl)picolinamide] | ≥ 6.30 | ≥ 6.30
9 | O=C(Nc1ncco1)c1ncccc1OC[C@@H]1CCCN1C(=O)[C@H]1CC[C@@H](C(F)(F)F)CC1 [Example 62, N-(oxazol-2-yl)-3-(((S)-1-(cis-4-(trifluoromethyl)cyclohexanecarbonyl)pyrrolidin-2-yl)methoxy)picolinamide] | ≥ 6.30 | ≥ 6.30
10 | O=C(NCc1ccccc1)c1ncccc1OC[C@H]1CCCN1C(=O)[C@H]1CC[C@H](C(F)(F)F)CC1 [Example 41, N-benzyl-3-(((R)-1-(trans-4-(trifluoromethyl)cyclohexanecarbonyl)pyrrolidin-2-yl)methoxy) picolinamide] | ≥ 6.30 | ≥ 6.30
11 | O=C(Nc1ccon1)c1ncccc1OC[C@H]1CCCN1C(=O)c1cc(C2CC2)on1 [Example 65] | ≥ 6.30 | ≥ 6.30
12 | O=C(Nc1ccon1)c1ncccc1OC[C@H]1CCCN1C(=O)[C@H]1CC[C@H](C(F)(F)F)CC1 [Example 54, N-(isoxazol-3-yl)-3-(((R)-1-(trans-4-(trifluoromethyl)cyclohexanecarbonyl)pyrrolidin-2-yl)methoxy)picolinamide] | ≥ 6.30 | ≥ 6.30
13 | O=C(NCC1(O)CCCCC1)c1ncccc1OC[C@H]1CCCN1C(=O)[C@H]1CC[C@H](C(F)(F)F)CC1 [Example 39, N-((1-hydroxycyclohexyl)methyl)-3-(((R)-1-(trans-4-(trifluoromethyl)cyclohexanecarbonyl)pyrrolidin-2-yl)methoxy)picolinamide] | ≥ 6.30 | ≥ 6.30
14 | NC(=O)c1ncc(Cl)cc1OC[C@H]1CCCN1C(=O)[C@H]1CC[C@H](C(F)(F)F)CC1 [Example 30, 5-chloro-3-(((R)-1-(trans-4-(trifluoromethyl)cyclohexanecarbonyl)pyrrolidin-2-yl)methoxy)picolinamide] | ≥ 6.30 | ≥ 6.30
15 | NC(=O)c1ncccc1OC[C@H]1CCCN1C(=O)c1ccc(OCC(F)(F)F)cc1 [Example 21, (R)-3-((1-(4-(2,2,2-trifluoroethoxy)benzoyl)pyrrolidin-2-yl)methoxy)picolinamide] | ≥ 6.30 | ≥ 6.30
16 | NC(=O)c1ncc(Cl)cc1OC[C@H]1CCCN1C(=O)[C@H]1CC[C@@H](C(F)(F)F)CC1 [Example 29, 5-chloro-3-(((R)-1-(cis-4-(trifluoromethyl)cyclohexanecarbonyl)pyrrolidin-2-yl)methoxy)picolinamide] | ≥ 6.30 | ≥ 6.30
17 | O=C(NC1CCOCC1)c1ncccc1OC[C@H]1CCCN1C(=O)[C@H]1CC[C@H](C(F)(F)F)CC1 [Example 49, N-(tetrahydro-2H-pyran-4-yl)-3-(((R)-1-(trans-4-(trifluoromethyl)cyclohexanecarbonyl)pyrrolidin-2-yl)methoxy) picolinamide] | ≥ 6.30 | ≥ 6.30
18 | O=C(Nc1ncco1)c1ncccc1OC[C@H]1CCCN1C(=O)[C@H]1CC[C@@H](C(F)(F)F)CC1 [Example 63, N-(oxazol-2-yl)-3-(((R)-1-(cis-4-(trifluoromethyl)cyclohexanecarbonyl)pyrrolidin-2-yl)methoxy)picolinamide] | ≥ 6.30 | ≥ 6.30
19 | NC(=O)c1ncccc1OC[C@@H]1CCCN1C(=O)[C@H]1CC[C@@H](C(F)(F)F)CC1 [Example 2, 3-(((S)-1-(cis-4-(trifluoromethyl)cyclohexanecarbonyl)pyrrolidin-2-yl)methoxy)picolinamide] | ≥ 6.30 | ≥ 6.30
20 | NC(=O)c1ncccc1OC[C@H]1CCCN1C(=O)c1ccc(C(F)(F)F)cc1 [Example 5, (R)-3-((1-(4-(trifluoromethyl)benzoyl)pyrrolidin-2-yl)methoxy) picolinamide] | ≥ 6.30 | ≥ 6.30
21 | NC(=O)c1ncccc1OC[C@H]1CCCN1C(=O)COc1ccc(C(F)(F)F)cc1 [Example 18, (R)-3-((1-(2-(4-(trifluoromethyl)phenoxy)acetyl)pyrrolidin-2-yl)methoxy)picolinamide] | ≥ 6.30 | ≥ 6.30
22 | O=C(N[C@H](CO)c1ccccc1)c1ncccc1OC[C@H]1CCCN1C(=O)[C@H]1CC[C@H](C(F)(F)F)CC1 [Example 43, N-((S)-2-hydroxy-1-phenylethyl)-3-(((R)-1-(trans-4-(trifluoromethyl)cyclohexanecarbonyl)pyrrolidin-2-yl)methoxy) picolinamide] | ≥ 6.30 | ≥ 6.30
23 | COC(=O)CNC(=O)c1ncccc1OC[C@H]1CCCN1C(=O)[C@H]1CC[C@H](C(F)(F)F)CC1 [Example 35, methyl 2-(3-(((R)-1-(trans-4-(trifluoromethyl)cyclohexanecarbonyl)pyrrolidin-2-yl)methoxy)picolinamido)acetate] | ≥ 6.30 | ≥ 6.30
24 | COc1cnc(C(N)=O)c(OC[C@H]2CCCN2C(=O)[C@H]2CC[C@H](C(F)(F)F)CC2)c1 [Example 31, 5-methoxy-3-(((R)-1-(trans-4-(trifluoromethyl)cyclohexanecarbonyl)pyrrolidin-2-yl)methoxy)picolinamide] | ≥ 6.30 | ≥ 6.30
